For the experiment, the target named is T1, adenine nucleotide translocase 1 (ANT1) (Bos taurus, UniProt P02722).
T1 construct: gene SLC25A4; native ANT in isolated bovine heart mitochondria
T1 sequence (P02722 2-298): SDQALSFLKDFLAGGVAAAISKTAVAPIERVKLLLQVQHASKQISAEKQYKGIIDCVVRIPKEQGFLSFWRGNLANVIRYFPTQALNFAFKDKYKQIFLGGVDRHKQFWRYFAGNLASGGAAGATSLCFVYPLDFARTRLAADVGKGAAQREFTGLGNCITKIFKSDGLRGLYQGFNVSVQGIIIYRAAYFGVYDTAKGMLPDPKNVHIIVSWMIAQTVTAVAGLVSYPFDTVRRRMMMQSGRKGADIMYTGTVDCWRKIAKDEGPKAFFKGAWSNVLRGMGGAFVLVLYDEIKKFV
Briefly: […]ADP uptake in isolated bovine heart mitochondria with […] atractyloside; import decreased to […]. Format: cell-based.

For `C=C1[C@@H]2CC[C@H]3[C@]4(C)C[C@H](O[C@@H]5O[C@H](CO)[C@@H](OS(=O)(=O)O)[C@H](OS(=O)(=O)O)[C@H]5OC(=O)CC(C)C)C[C@@H](C(=O)O)[C@H]4CC[C@]3(C2)[C@H]1O` [atractyloside], the remaining activity (commonly the signal under treatment as a percentage of the control signal) at 50 µM was 13.8 ± 1.1%.

These data come from article PMC4586513, “Mitochondrial ADP/ATP exchange inhibition: a novel off-target mechanism underlying ibipinabant-induced myotoxicity” (Scientific Reports, 2015).
